Results reported in patent US20250333397A1 (REMIX THERAPEUTICS INC., priority 2021, published 2025).
Read-outs that look alike come from different tables or passages of the source.

How the values were obtained:
Type in all cases: cell-based, human
MYB mRNA = test: RT-qPCR splicing assay, MYB canonical (CJ) and alternative (AJ) junction mRNA; settings: Homo sapiens; for AC50: read-out: MYB AJ (AC50, increase in AJ mRNA)
How it was run: (§1)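 24 h compound exposure of A673 or K562 cells at 37 °C, 10 uM top final concentration, 3-fold steps, DMSO ≤0.25%. Splice-isoform levels determined by qPCR on cDNA from lysates, run at least in duplicate; values expressed as RQ normalized to GAPDH, GUSB or PPIA and DMSO.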

SMN2 mRNA = test: RT-qPCR splicing assay panel, SMN2 canonical junction (CJ) mRNA; settings: Homo sapiens
How it was run: as §1

HTT mRNA = test: RT-qPCR splicing assay, HTT canonical (CJ) and alternative (AJ) junction mRNA; settings: Homo sapiens; for AC50: read-out: HTT AJ (AC50, increase in AJ mRNA)
How it was run: as §1

Target C mRNA = test: RT-qPCR splicing assay panel, Target C canonical junction (CJ) mRNA; settings: Homo sapiens
How it was run: as §1

[1] = 24 h, Table 3A, A673 or K562 cells, 24 h treatment
[2] = 24 h, Table 3A, A673 or K562 cells, 24 h treatment, read-out: MYB CJ (IC50, decrease in CJ mRNA)
[3] = canonical junction (CJ) mRNA, RT-qPCR panel, Table 4A, read-out: MYB, decrease in CJ mRNA levels, IC50
[4] = canonical junction (CJ) mRNA, RT-qPCR panel, Table 4A, read-out: SMN2, decrease in CJ mRNA levels, IC50
[5] = 24 h, Table 3A, A673 or K562 cells, 24 h treatment, read-out: HTT CJ (IC50, decrease in CJ mRNA)
[6] = canonical junction (CJ) mRNA, RT-qPCR panel, Table 4A, read-out: HTT, decrease in CJ mRNA levels, IC50
[7] = canonical junction (CJ) mRNA, RT-qPCR panel, Table 4A, read-out: Target C, decrease in CJ mRNA levels, IC50
[8] = 24 h, Table 3B, A673 or K562 cells, 24 h treatment

| SMILES | AC50 (MYB mRNA; [1]) [nM] | IC50 (MYB mRNA; [2]) [nM] | IC50 (MYB mRNA; [3]) [nM] | IC50 (SMN2 mRNA; [4]) [nM] | AC50 (HTT mRNA; [1]) [nM] | IC50 (HTT mRNA; [5]) [nM] | IC50 (HTT mRNA; [6]) [nM] | IC50 (Target C mRNA; [7]) [nM] | AC50 (MYB mRNA; [8]) [nM] | IC50 (MYB mRNA; 24 h, Table 3B, A673 or K562 cells, 24 h treatment, read-out: MYB CJ (IC50, decrease in CJ mRNA)) [nM] | IC50 (MYB mRNA; Table 4B, gene panel, read-out: MYB (IC50, decrease in CJ mRNA levels)) [nM] | IC50 (SMN2 mRNA; Table 4B, gene panel, read-out: SMN2 (IC50, decrease in CJ mRNA levels)) [nM] | AC50 (HTT mRNA; [8]) [nM] | IC50 (HTT mRNA; 24 h, Table 3B, A673 or K562 cells, 24 h treatment, read-out: HTT CJ (IC50, decrease in CJ mRNA)) [nM] | IC50 (HTT mRNA; Table 4B, gene panel, read-out: HTT (IC50, decrease in CJ mRNA levels)) [nM] | IC50 (Target C mRNA; Table 4B, gene panel, read-out: Target C (IC50, decrease in CJ mRNA levels)) [nM] |
| --- | --- | --- | --- | --- | --- | --- | --- | --- | --- | --- | --- | --- | --- | --- | --- | --- |
| CNc1cc(-c2ccc(-c3ccc(N4CCC(NCC5CC5)C4)nn3)c(O)c2)ncn1 (centres unmarked) [Compound 434] | 100 to 1000 | 100 to 1000 | 100 to 1000 | < 100 | < 100 | < 100 | < 100 | 100 to 1000 |  |  |  |  |  |  |  |  |
| Oc1cc(-c2ccc(-c3ccc(N4CC[C@@H](NC5CCC5)C4)nn3)c(O)c2)cnn1 [Compound 419, 5-(4-{6-[(3R)-3-(cyclobutylamino)pyrrolidin-1-yl]pyridazin-3-yl}-3-hydroxyphenyl)pyridazin-3-ol] | > 10000 | 1000 to 10000 | 1000 to 10000 | 100 to 1000 | 1000 to 10000 | 100 to 1000 | 100 to 1000 | 1000 to 10000 |  |  |  |  |  |  |  |  |
| CN(C1CCN(c2ccc(-c3cc(F)c(-c4cn[nH]c4)cc3O)nn2)C1)C(C)(C)C (stereo in doubt) [Compound 120, 2-{6-[(3R)-3-[tert-butyl(methyl)amino]pyrrolidin-1-yl]pyridazin-3-yl}-4-fluoro-5-(1H-pyrazol-4-yl)phenol] | < 100 | < 100 | < 100 | < 100 | < 100 | < 100 | < 100 | < 100 |  |  |  |  |  |  |  |  |
| CCOc1cc(-c2ccc(-c3ccc(N4CCC(NCC5CC5)C4)nn3)c(O)c2)ncn1 (centres unmarked) [Compound 433] | > 10000 | > 10000 | > 10000 | > 10000 | > 10000 | > 10000 | > 10000 | > 10000 |  |  |  |  |  |  |  |  |
| COc1cc(-c2ccc(-c3ccc(N4CC[C@H](N[C@H]5C[C@@H](F)C5)C4)nn3)c(O)c2)ncn1 [Compound 407, 5-(6-methoxypyrimidin-4-yl)-2-{6-[(3R)-3-{[(1s,3s)-3-fluorocyclobutyl]amino}pyrrolidin-1-yl]pyridazin-3-yl}phenol] | 100 to 1000 | 100 to 1000 | 100 to 1000 | 100 to 1000 | 100 to 1000 | 100 to 1000 | 100 to 1000 | 100 to 1000 |  |  |  |  |  |  |  |  |
| Cc1ccc(-c2cc(O)c(-c3ccc(N4CC[C@@H](NC5CCC5)C4)nn3)cc2F)cn1 [Compound 222] | 1000 to 10000 | 100 to 1000 | 100 to 1000 | 100 to 1000 | 100 to 1000 | 100 to 1000 | 100 to 1000 | 1000 to 10000 |  |  |  |  |  |  |  |  |
| Oc1cc(-c2cn[nH]c2)c(F)cc1-c1ccc(N2CC[C@@H](NC3CCC3)C2)nn1 [Compound 115, 2-{6-[(3R)-3-(cyclobutylamino)pyrrolidin-1-yl]pyridazin-3-yl}-4-fluoro-5-(1H-pyrazol-4-yl)phenol] | < 100 | < 100 | < 100 | < 100 | < 100 | < 100 | < 100 | < 100 |  |  |  |  |  |  |  |  |
| COc1cc(-c2cc(O)c(-c3ccc(N4CC[C@@H](N[C@H]5C[C@H](F)C5)C4)nn3)cc2F)cnn1 [Compound 232] | 100 to 1000 | 100 to 1000 | 100 to 1000 | < 100 | 100 to 1000 | < 100 | < 100 | 100 to 1000 |  |  |  |  |  |  |  |  |
| COc1cc(-c2cc(O)c(-c3cnc(N4CC[C@H](NC5CCC5)C4)nn3)cc2F)cnn1 [Compound 321, 2-{3-[(3S)-3-(cyclobutylamino)pyrrolidin-1-yl]-1,2,4-triazin-6-yl}-4-fluoro-5-(6-methoxypyridazin-4-yl)phenol] | 1000 to 10000 | 1000 to 10000 | 1000 to 10000 | 100 to 1000 | 100 to 1000 | 100 to 1000 | 100 to 1000 | 100 to 1000 |  |  |  |  |  |  |  |  |
| COc1nc(-c2cnc(N3CCC(NC4CCC4)C3)nn2)ccc1-c1cnc(C)s1 (centres unmarked) [Compound 421] | 100 to 1000 | 100 to 1000 | 100 to 1000 | 100 to 1000 | 100 to 1000 | 100 to 1000 | 100 to 1000 | 100 to 1000 |  |  |  |  |  |  |  |  |
| Cn1ncc(-c2ccc(-c3ccc(N4CC[C@@H](NC(C)(C)C)C4)nn3)c(O)c2)cc1=O [Compound 297, 5-(4-{6-[(3R)-3-(tert-butylamino)pyrrolidin-1-yl]pyridazin-3-yl}-3-hydroxyphenyl)-2-methylpyridazin-3-one] | < 100 | < 100 | < 100 | < 100 | < 100 | < 100 | < 100 | < 100 |  |  |  |  |  |  |  |  |
| Cc1nc2cc(O)c(-c3cnc(N4CC[C@@H](N(C)C(C)(C)C)C4)nn3)cc2o1 [Compound 856] |  |  |  |  |  |  |  |  | 1000 to 10000 | 1000 to 10000 | 1000 to 10000 | 100 to 1000 | 1000 to 10000 | 100 to 1000 | 100 to 1000 | 1000 to 10000 |
| Cc1nsc(-c2cc(O)c(-c3ccc(N4CC[C@H](NCC5CC5)C4)nn3)cc2F)n1 [Compound 432] | 100 to 1000 | 1000 to 10000 | 1000 to 10000 | < 100 | 100 to 1000 | < 100 | < 100 | 100 to 1000 |  |  |  |  |  |  |  |  |
| Cn1cc2nc(-c3ccc(-c4ccc(N5CCC(NC6CCC6)C5)nn4)c(O)c3)ccc2n1 (centres unmarked) [Compound 319] | 100 to 1000 | 1000 to 10000 | 1000 to 10000 | 100 to 1000 | 100 to 1000 | 100 to 1000 | 100 to 1000 | 1000 to 10000 |  |  |  |  |  |  |  |  |
| Cn1cc2cc(-c3ccc(-c4ccc(N5CCC(NC6CCC6)C5)nn4)c(O)c3)cc(F)c2n1 (centres unmarked) [Compound 328] | 100 to 1000 | 100 to 1000 | 100 to 1000 | < 100 | < 100 | < 100 | < 100 | 100 to 1000 |  |  |  |  |  |  |  |  |
| O=c1cc(-c2cc(O)c(-c3ccc(N4CC[C@@H](NC5CCC5)C4)nn3)cc2F)cc[nH]1 [Compound 220, 4-(4-{6-[(3R)-3-(cyclobutylamino)pyrrolidin-1-yl]pyridazin-3-yl}-2-fluoro-5-hydroxyphenyl)-1H-pyridin-2-one] | 100 to 1000 | 100 to 1000 | 100 to 1000 | 100 to 1000 | 100 to 1000 | 100 to 1000 | 100 to 1000 | 100 to 1000 |  |  |  |  |  |  |  |  |
